Test results: ChEMBL document CHEMBL5614416, “Discovery of novel thiophene[3,2-d]pyrimidine-based tubulin inhibitors with enhanced antitumor efficacy for combined use with anti-pd-l1 immunotherapy in melanoma” (Eur J Med Chem, 2024)
Calls of active or inactive are those of the source. The rule behind the calls is not given here.

Columns and labels:
HCT-116 = assay: Antiproliferative activity against human HCT-116 cells incubated for 48 hrs by MTT assay; assay type: functional, cell-based; settings: HCT-116, 48 h
HeLa = assay: Antiproliferative activity against human HeLa cells incubated for 48 hrs by MTT assay; assay type: functional, cell-based
HepG2 = assay: Antiproliferative activity against human HepG2 cells incubated for 48 hrs by MTT assay; assay type: functional, cell-based; settings: HepG2, 48 h
[1] = Inhibition of pig brain tubulin polymerization by spectrophotometric method
B16-F10 [2] = assay: Induction of cell cycle arrest in mouse B16-F10 cells assessed as accumulation of cells at S phase at 1 nM incubated for 12 hrs by flow cytometry (reference value: 30.5 %); assay type: functional
B16-F10 [3] = assay: Induction of cell cycle arrest in mouse B16-F10 cells assessed as accumulation of cells at G2 phase at 1 nM incubated for 12 hrs by flow cytometry (reference value: 13.6 %); assay type: functional
B16-F10 [4] = assay: Induction of cell cycle arrest in mouse B16-F10 cells assessed as accumulation of cells at G1 phase at 2 nM incubated for 12 hrs by flow cytometry (reference value: 52.0 %); assay type: functional
B16-F10 [5] = assay: Induction of apoptosis in mouse B16-F10 cells assessed as early apoptotic cells at 0.5 nM incubated for 12 hrs by Annexin V-FITC/PI staining based flow cytometry (reference value: 3.81 %); assay type: functional
B16-F10 [6] = assay: Induction of apoptosis in mouse B16-F10 cells assessed as late apoptotic cells at 0.5 nM incubated for 12 hrs by Annexin V-FITC/PI staining based flow cytometry (reference value: 2.39 %); assay type: functional
B16-F10 [7] = assay: Induction of apoptosis in mouse B16-F10 cells assessed as necrotic cells at 0.5 nM incubated for 12 hrs by Annexin V-FITC/PI staining based flow cytometry (reference value: 0.25 %); assay type: functional
B16-F10 [8] = assay: Induction of apoptosis in mouse B16-F10 cells assessed as early apoptotic cells at 1 nM incubated for 12 hrs by Annexin V-FITC/PI staining based flow cytometry (reference value: 3.81 %); assay type: functional
B16-F10 [9] = assay: Induction of apoptosis in mouse B16-F10 cells assessed as early apoptotic cells at 2 nM incubated for 12 hrs by Annexin V-FITC/PI staining based flow cytometry (reference value: 3.81 %); assay type: functional
B16-F10 [10] = assay: Induction of apoptosis in mouse B16-F10 cells assessed as late apoptotic cells at 2 nM incubated for 12 hrs by Annexin V-FITC/PI staining based flow cytometry (reference value: 2.39 %); assay type: functional
B16-F10 [11] = assay: Induction of apoptosis in mouse B16-F10 cells assessed as necrotic cells at 2 nM incubated for 12 hrs by Annexin V-FITC/PI staining based flow cytometry (reference value: 0.25 %); assay type: functional
B16-F10 [12] = assay: Inhibition of cell migration in mouse B16-F10 cells assessed as migration rate at 1 nM incubated for 24 hrs by wound healing assay (reference value: 61.1 %); assay type: functional; parameters: scale not given: the % may be the effect or the level left
B16-F10 [13] = assay: Inhibition of cell migration in mouse B16-F10 cells assessed as migration rate at 4 nM incubated for 24 hrs by wound healing assay (reference value: 61.1 %); assay type: functional; parameters: scale not given: the % may be the effect or the level left
MCF7 = assay: Inhibition of cell migration in human MCF7 cells assessed as reduction in wound closure incubated for 24 hrs by wound healing assay; assay type: functional, cell-based
B16-F10 [14] = assay: Induction of apoptosis in mouse B16-F10 cells assessed as increase in Bax level upto 30 nM incubated for 24 hrs by Western blot analysis; assay type: functional, cell-based
B16-F10 [15] = assay: Antitumor activity against mouse B16-F10 cells xenografted in C57 mouse at 3.5 mg/kg, ip qd for 12 days in presence of NP-19 relative to control; assay type: functional; settings: B16-F10, 288 h, time 12 day, read-out: TGI
[16] = Toxicity in C57 mouse xenografted with mouse B16-F10 cells assessed as morphological abnormality in liver at 3.5 mg/kg, ip qd for 12 days in presence of NP-19 by H and E staining based analysis; assay type: organism-based; settings: in vivo, 288 h, time 12 day
[17] = Toxicity in C57 mouse xenografted with mouse B16-F10 cells assessed as morphological abnormality in kidney at 7 mg/kg, ip qd for 12 days by H and E staining based analysis; assay type: organism-based; settings: in vivo, 288 h, time 12 day
[18] = Toxicity in C57 mouse xenografted with mouse B16-F10 cells assessed as WBC count at 7 mg/kg, ip qd for 12 days by biochemical analysis (reference value: 8.240 to 8.340 10^9/L); assay type: organism-based; settings: in vivo, 288 h, time 12 day
[19] = Toxicity in C57 mouse xenografted with mouse B16-F10 cells assessed as MCV level at 7 mg/kg, ip qd for 12 days by biochemical analysis (reference value: 15.800 to 48.900 fL); assay type: organism-based; settings: in vivo, 288 h, time 12 day
[20] = Toxicity in C57 mouse xenografted with mouse B16-F10 cells assessed as neutrophil count at 7 mg/kg, ip qd for 12 days by biochemical analysis (reference value: 2.130 to 5.46 10^9/L); assay type: organism-based; settings: in vivo, 288 h, time 12 day
[21] = Toxicity in C57 mouse xenografted with mouse B16-F10 cells assessed as basophil count at 7 mg/kg, ip qd for 12 days by biochemical analysis (reference value: 0.060 to 25.500 10^9/L); assay type: organism-based; settings: in vivo, 288 h, time 12 day
[22] = Toxicity in C57 mouse xenografted with mouse B16-F10 cells assessed as lymphocytes level at 7 mg/kg, ip qd for 12 days by biochemical analysis (reference value: 7.300 to 65.500 %); assay type: organism-based; settings: in vivo, 288 h, time 12 day
[23] = Toxicity in C57 mouse xenografted with mouse B16-F10 cells assessed as RDW-CV at 7 mg/kg, ip qd for 12 days by biochemical analysis (reference value: 14.300 to 14.300); assay type: organism-based; settings: in vivo, 288 h, time 12 day
[24] = Toxicity in C57 mouse xenografted with mouse B16-F10 cells assessed as PCT level at 7 mg/kg, ip qd for 12 days by biochemical analysis (reference value: 0.425 to 5.300); assay type: organism-based; settings: in vivo, 288 h, time 12 day
[25] = Toxicity in C57 mouse xenografted with mouse B16-F10 cells assessed as WBC count at 3.5 mg/kg, ip qd for 12 days in presence of NP-19 by biochemical analysis (reference value: 8.240 to 8.340 10^9/L); assay type: organism-based; settings: in vivo, 288 h, time 12 day
[26] = Toxicity in C57 mouse xenografted with mouse B16-F10 cells assessed as MCV level at 3.5 mg/kg, ip qd for 12 days in presence of NP-19 by biochemical analysis (reference value: 15.800 to 48.900 fL); assay type: organism-based; settings: in vivo, 288 h, time 12 day
[27] = Toxicity in C57 mouse xenografted with mouse B16-F10 cells assessed as monocytes count at 3.5 mg/kg, ip qd for 12 days in presence of NP-19 by biochemical analysis (reference value: 0.080 to 0.610 10^9/L); assay type: organism-based; settings: in vivo, 288 h, time 12 day
[28] = Toxicity in C57 mouse xenografted with mouse B16-F10 cells assessed as lymphocytes level at 3.5 mg/kg, ip qd for 12 days in presence of NP-19 by biochemical analysis (reference value: 7.300 to 65.500 %); assay type: organism-based; settings: in vivo, 288 h, time 12 day
[29] = Toxicity in C57 mouse xenografted with mouse B16-F10 cells assessed as RDW-CV at 3.5 mg/kg, ip qd for 12 days in presence of NP-19 by biochemical analysis (reference value: 14.300 to 14.300); assay type: organism-based; settings: in vivo, 288 h, time 12 day

Cc1nc(N(C)c2ccc3c(ccn3C)c2)c2sccc2n1 showed an IC50 (HCT-116) of 0.38 nM, an IC50 (HeLa) of 5.37 nM and an IC50 (HepG2) of 9.37 nM. For the same molecule, the IC50 [1] was 2540 nM, the Activity (B16-F10 [2]) was 22.3% and the Activity (B16-F10 [3]) was 61.9%. For the same molecule, the Activity (B16-F10 [4]) was 5.24%, the Activity (B16-F10 [5]) was 11.2% and the Activity (B16-F10 [6]) was 7.06%. It also gave an Activity (B16-F10 [7]) of 1.44%, an Activity (B16-F10 [8]) of 11% and an Activity (B16-F10 [9]) of 14.2%. For the same molecule, the Activity (B16-F10 [10]) was 8.65%, the Activity (B16-F10 [11]) was 1.76% and the Activity (B16-F10 [12]) was 57.5%. The Activity (B16-F10 [13]) was 5.23%, the inhibition (MCF7) was “Dose-Dependent Effect” and the Activity (B16-F10 [14]) was “Active”. For the same molecule, the inhibition in vivo at 3.5 mg/kg (B16-F10 [15]) was 75.7%, the Activity [16] was “Non-Toxic” and the Activity [17] was “Non-Toxic”. For the same molecule, the Activity [18] was 2.51 10^9/L, the Activity [19] was 15.8 fL and the Activity [20] was 0.85 10^9/L. For the same molecule, the Activity [21] was 0.01 10^9/L, the Activity [22] was 2.2% and the Activity [23] was 14.2. The Activity [24] was 0.329, the Activity [25] was 4.22 10^9/L and the Activity [26] was 15.7 fL. For the same molecule, the Activity [27] was 0.06 10^9/L, the Activity [28] was 2.4% and the Activity [29] was 14.
